In the experiment the target is T1, MELK (Homo sapiens, UniProt Q14680).
T1 construct: purchased Life Technologies
Put plainly: Z′-LYTE biochemical assay (Life Technologies), MELK inhibition. On the procedure: The invention also provides methods for inhibiting MELK, comprising contacting MELK with a compound of the invention in an amount effective to inhibit MELK. In certain embodiments, the method is conducted in vitro. In certain embodiments, the method is conducted in vivo. Inhibition of MELK can be determined by the Z′-LYTE® biochemical assay from Life Technologies (Life Technologies Z′-LYTE® Screening Protocol and Assay Conditions, June 2012, incorporated herein by reference).
The following compounds were made according to the general scheme shown in Example 1. IC50 against MELK was determined by Z′-LYTE® biochemical assay at 25 uM ATP concentration, and are measured in nM.

T1 sequence (Q14680 whole entry): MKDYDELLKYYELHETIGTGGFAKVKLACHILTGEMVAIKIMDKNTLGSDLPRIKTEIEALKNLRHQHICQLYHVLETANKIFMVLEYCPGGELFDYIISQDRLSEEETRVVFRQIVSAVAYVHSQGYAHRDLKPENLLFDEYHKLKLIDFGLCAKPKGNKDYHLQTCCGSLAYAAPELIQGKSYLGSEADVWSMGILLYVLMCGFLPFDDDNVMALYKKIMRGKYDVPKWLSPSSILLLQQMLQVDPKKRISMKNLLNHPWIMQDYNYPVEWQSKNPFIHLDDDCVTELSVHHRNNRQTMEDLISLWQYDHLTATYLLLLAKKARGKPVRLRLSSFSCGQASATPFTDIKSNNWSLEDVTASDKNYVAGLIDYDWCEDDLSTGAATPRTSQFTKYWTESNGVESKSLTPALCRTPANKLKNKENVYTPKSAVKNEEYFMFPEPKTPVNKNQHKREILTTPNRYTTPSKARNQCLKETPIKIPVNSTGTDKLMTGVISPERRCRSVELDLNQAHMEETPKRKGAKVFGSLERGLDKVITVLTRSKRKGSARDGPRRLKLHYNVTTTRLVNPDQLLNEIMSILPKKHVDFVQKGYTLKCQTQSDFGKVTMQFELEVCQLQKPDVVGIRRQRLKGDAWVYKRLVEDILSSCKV

For orientation: IC50 means the midpoint of a concentration-inhibition curve. Read a high IC50 as weaker potency. Molecule `O=C(Nc1ccccc1)c1ccc(-c2cn[nH]c2)cc1OCc1ccccc1` showed an IC50 of 1160 nM.
With `O=C(Nc1ccc2c(c1)CCNCC2)c1ccc(-c2cn[nH]c2)cc1OC1Cc2ccccc2C1` the figure was 1.05 nM; with `O=C(Nc1ccc2c(c1)CCNCC2)c1ccc(-c2cn[nH]c2)cc1OC1CCCCC1`, 2.99 nM; with `O=C(Nc1ccc2c(c1)CCNCC2)c1ccc(-c2cn[nH]c2)cc1OCC1CCCCC1`, 5.48 nM.
Regarding `O=C(Nc1ccc2c(c1)CCNCC2)c1ccc(-c2cn[nH]c2)cc1OCc1cccnc1`, half-maximal inhibition (IC50) required 16.2 nM.
With `O=C(Nc1ccc2c(c1)CCNCC2)c1ccc(-c2cn[nH]c2)cc1OC(CN1CCCC1)c1ccccc1` (centres unmarked) the figure was 213 nM.
With `O=C(Nc1ccc2c(c1)CCNCC2)c1ccc(-c2cn[nH]c2)cc1OCCN1CCCC1` the figure was 75.1 nM; with `O=C(Nc1ccc2c(c1)CCNCC2)c1ccc(-c2cn[nH]c2)cc1OCCN1CCCC1=O`, 80.6 nM.
With `O=C(Nc1ccc2c(c1)CCNCC2)c1ccc(-c2cn[nH]c2)cc1OCCN1CCOCC1` the figure was 85.3 nM.
Regarding `O=C(Nc1ccc2c(c1)CCNCC2)c1ccc(-c2cn[nH]c2)cc1O`, 68.8 nM corresponded to half-maximal inhibition (IC50).
Consider `O=C(Nc1ccc2c(c1)CCNCC2)c1ccc(-c2cn[nH]c2)cc1OCc1ccccc1` [Compound 02-102, 2-(benzyloxy)-4-(1H-pyrazol-4-yl)-N-(2,3,4,5-tetrahydro-1H-benzo[d]azepin-7-yl)benzamide], for which half-maximal inhibition (IC50) was put at 2.17 nM.
Next, `O=C(Nc1cccc2c1CCNCC2)c1ccc(-c2cn[nH]c2)cc1OCc1ccccc1` [Compound 02-103]: 134 nM.
Next, `O=C(Nc1ccc2c(c1)CCNCC2)c1ccc(-c2cc(Cl)c(O)c(Cl)c2)cc1OCc1ccccc1` [Compound 02-104, 3-(benzyloxy)-3′,5′-dichloro-4′-hydroxy-N-(2,3,4,5-tetrahydro-1H-benzo[d]azepin-7-yl)-[1,1′-biphenyl]-4-carboxamide]: 1.92 nM; `CC(=O)N1CCc2ccc(NC(=O)c3ccc(-c4cn[nH]c4)cc3OCc3ccccc3)cc2CC1` [Compound 02-111, N-(3-acetyl-2,3,4,5-tetrahydro-1H-benzo[d]azepin-7-yl)-2-(benzyloxy)-4-(1H-pyrazol-4-yl)benzamide]: 60.6 nM.

The record behind these values is patent US10875844B2, “Salicylate inhibitors of MELK and methods of use” (priority 2015, dated 2020).
